Measurements: PMC8000814, “Structure-Based Virtual Screening: Identification of a Novel NS2B-NS3 Protease Inhibitor with Potent Antiviral Activity against Zika and Dengue Viruses” (Microorganisms, 2021)

Molecular target: T1, ZIKV NS2B-NS3 protease (Zika virus ZIKV/H. sapiens/FrenchPolynesia/10087PF/2013, UniProt A0A024B7W1)
T1 construct: recombinant NS2B-NS3 protease cut from the ZIKV genome polyprotein; codon-optimized synthetic gene in pET22b; His-tag fused; E. coli BL21(DE3); Ni-NTA purified
Assay: fluorescence-based protease inhibition assay, ex […] nm / em […] nm
Type: biochemical
Details: read-out: apparent IC50

T1 sequence (A0A024B7W1 1503-1680): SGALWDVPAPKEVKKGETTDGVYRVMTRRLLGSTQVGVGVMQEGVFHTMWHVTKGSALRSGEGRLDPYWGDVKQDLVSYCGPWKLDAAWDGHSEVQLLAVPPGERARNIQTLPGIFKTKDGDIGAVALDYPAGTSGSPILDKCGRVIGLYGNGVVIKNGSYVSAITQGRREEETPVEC

O=[N+]([O-])c1ccc(Nc2ccc3[nH]ncc3c2)nc1N1CCNCC1 [compound 1]
IC50: 1500 nM
